The nature of data set [1]: Half life in human plasma at 50 ug/ml at 37 degC at pH 7.4. The data set is classed as ADME, cell-free.
Data set [2] can be described thus: Plasma concentration in C57BL6 mouse at 250 mg/kg, po dosed via gavage as single administration. It counts as ADME, organism-based. To be noted: in vivo.
The nature of data set [3]: Half life in mouse plasma at 50 ug/ml at 37 degC at pH 7.4. It counts as ADME, cell-free.
The test system of the next data set is NCI-H1373. The data set is described as follows: Growth inhibition of human NCI-H1373 cells relative to control. The data set is classed as functional, cell-based.
Data set [4] deals with T1, carboxylesterase 2 (cocaine esterase) (Homo sapiens, UniProt O00748).
T1 sequence (O00748 whole entry): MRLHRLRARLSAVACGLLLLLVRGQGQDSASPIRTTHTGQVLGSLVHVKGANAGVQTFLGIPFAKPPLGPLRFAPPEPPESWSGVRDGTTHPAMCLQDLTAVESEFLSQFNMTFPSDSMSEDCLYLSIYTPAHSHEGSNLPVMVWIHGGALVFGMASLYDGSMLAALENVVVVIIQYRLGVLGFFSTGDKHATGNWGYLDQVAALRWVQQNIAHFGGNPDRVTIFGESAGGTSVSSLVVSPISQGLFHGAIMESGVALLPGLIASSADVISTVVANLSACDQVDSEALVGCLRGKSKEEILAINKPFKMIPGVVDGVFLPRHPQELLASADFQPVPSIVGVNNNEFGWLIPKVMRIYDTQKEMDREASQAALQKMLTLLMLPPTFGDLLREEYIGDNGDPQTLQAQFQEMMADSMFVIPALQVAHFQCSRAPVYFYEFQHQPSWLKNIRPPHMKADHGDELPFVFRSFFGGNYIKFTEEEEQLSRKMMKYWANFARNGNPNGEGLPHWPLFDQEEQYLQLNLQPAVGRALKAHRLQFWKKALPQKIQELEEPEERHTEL
The data set is described as follows: Stability assessed as recombinant human carboxyesterase-2 mediated compound hydrolysis by measuring half life at 50 ug/ml at 37 degC at pH 7.4. The data set is classed as ADME. To be noted: recombinant human carboxylesterase-2, pH 7.4.

A further data set has as its system A549. The data set is described as follows: Growth inhibition of human A549 cells relative to control. The data set is classed as functional, cell-based.
For data set [5], the target named is T2, Connector enhancer of kinase suppressor of ras 1 (Homo sapiens) (UniProt Q969H4).
T2 sequence (whole entry): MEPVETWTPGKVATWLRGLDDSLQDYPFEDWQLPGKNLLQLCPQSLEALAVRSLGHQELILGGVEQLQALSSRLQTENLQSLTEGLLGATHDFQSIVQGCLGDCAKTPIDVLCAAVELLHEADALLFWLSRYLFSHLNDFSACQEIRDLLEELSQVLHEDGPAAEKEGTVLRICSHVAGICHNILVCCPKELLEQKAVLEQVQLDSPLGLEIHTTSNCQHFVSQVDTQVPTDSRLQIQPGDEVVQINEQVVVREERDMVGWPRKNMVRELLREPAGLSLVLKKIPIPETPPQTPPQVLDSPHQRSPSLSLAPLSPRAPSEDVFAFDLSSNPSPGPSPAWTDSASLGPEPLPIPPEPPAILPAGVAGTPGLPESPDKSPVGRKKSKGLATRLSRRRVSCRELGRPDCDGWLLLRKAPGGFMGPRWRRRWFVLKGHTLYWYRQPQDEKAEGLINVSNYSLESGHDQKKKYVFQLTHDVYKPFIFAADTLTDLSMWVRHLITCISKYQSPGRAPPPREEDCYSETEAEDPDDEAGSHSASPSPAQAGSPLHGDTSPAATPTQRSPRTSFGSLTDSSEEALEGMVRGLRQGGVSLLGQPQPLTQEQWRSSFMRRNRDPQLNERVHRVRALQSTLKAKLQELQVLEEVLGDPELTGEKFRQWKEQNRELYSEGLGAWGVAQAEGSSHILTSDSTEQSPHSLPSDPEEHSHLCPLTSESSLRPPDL
The data set is described as follows: Inhibition of GFP-tagged CNKSR1 (unknown origin) expressed in HEK293T cells assessed as blocking of membrane colocalization of CNKSR1 and mutant-KRas at plasma membrane at 50 uM incubated for 4 hrs by confocal imaging assay. It counts as cell-based.

For data set [6], the target named is T2, Connector enhancer of kinase suppressor of ras 1 (Homo sapiens). The data set can be described thus: Inhibition of CNKSR1 (unknown origin) assessed as reduction in inhibition of KRas signaling effectors by measuring p-AKT levels at 20 uM by cell based assay.
A short description of data set [7]: Terminal half life in iv dosed mouse. To be noted: in vivo, read-out: beta t1/2. The data set is classed as ADME, organism-based.
For data set [8], the target named is T3, Connector enhancer of kinase suppressor of ras 1 (Homo sapiens, UniProt Q969H4).
T3 sequence (Q969H4 whole entry): T2 sequence (whole entry)
The data set can be described thus: Binding affinity to CNKSR1 PH-domain (unknown origin) by SPR spectroscopy. Particulars: read-out: Kd. For orientation: In SPR one partner is held on a chip, and binding of the other changes the refractive index at the surface.

Data set [9] is described as follows: Toxicity in SCID mouse xenografted with human NCI-H2122 cells assessed as induction of weight loss at 200 mg/kg/day dosed via gavage daily for 20 days. It counts as organism-based. To be noted: in vivo, po, 480 h. On the technique in general: In xenograft studies the graft and the host belong to different species.
Data set [10] is described as follows: Toxicity in SCID mouse xenografted with human NCI-H2122 cells assessed as induction of observable toxic effects at 200 mg/kg/day dosed via gavage daily for 20 days. It counts as organism-based. To be noted: in vivo, po, 480 h.
Another data set deals with NCI-H2122. The data set is described as follows: Growth inhibition of human NCI-H2122 cells incubated for 3 days. Particulars: NCI-H2122, 72 h. The data set is classed as functional, cell-based.
For data set [11], the target named is T2, Connector enhancer of kinase suppressor of ras 1 (Homo sapiens). The data set can be described thus: Inhibition of CNKSR1 PH-domain (unknown origin) assessed as reduction in c-RAF Ser338 phosphorylation at 25 to 50 uM by cell based Western blot analysis. On the technique in general: Immunoblotting shows a protein as a band on a membrane.

Active and inactive are the calls of the source. No cut-off for these calls is given here.

For the molecule `CCOC(=O)Cc1nn(Cc2nc(-c3ccc(C)cc3)cs2)c(=O)c2ccccc12`, the t1/2 result in [1] is “Stable”. This molecule also had a concentration in data set [2] of 7 µM. The results for the half-life at 50 ug/ml in data set [3] and in data set [4] were 6.3 min and 99 min, respectively. Moreover, the “growth inhibition (GI)” value in the data set with NCI-H1373 and in the data set on A549 was “Active” throughout. Moreover, the inhibition result in [5], in data set [6] and in data set [11] was “Active” throughout. For the same molecule, in [7], the half-life turned out to be 3 min. Besides, in data set [8], the Kd was 1.8 to 3.2 µM. Moreover, the Activity entry in [9] and in data set [10] was “Non-Toxic” throughout. The molecule further gave an IC50 in the data set on NCI-H2122 of 27 µM.

Usually Kd stands for the concentration at which binding is half-saturated. By IC50 is commonly meant the midpoint of a concentration-inhibition curve. Lower therefore signals inhibition by little substance.

These data come from ChEMBL document CHEMBL4419164, “Methods and compositions for inhibiting cnksr1” (2018).
